Target: T1, P2X3 receptor (Mus musculus, UniProt Q3UR32)
T1 construct: gene P2rx3; native receptor in cultured mouse trigeminal ganglion neurons (WT)
T1 sequence (Q3UR32 1-397): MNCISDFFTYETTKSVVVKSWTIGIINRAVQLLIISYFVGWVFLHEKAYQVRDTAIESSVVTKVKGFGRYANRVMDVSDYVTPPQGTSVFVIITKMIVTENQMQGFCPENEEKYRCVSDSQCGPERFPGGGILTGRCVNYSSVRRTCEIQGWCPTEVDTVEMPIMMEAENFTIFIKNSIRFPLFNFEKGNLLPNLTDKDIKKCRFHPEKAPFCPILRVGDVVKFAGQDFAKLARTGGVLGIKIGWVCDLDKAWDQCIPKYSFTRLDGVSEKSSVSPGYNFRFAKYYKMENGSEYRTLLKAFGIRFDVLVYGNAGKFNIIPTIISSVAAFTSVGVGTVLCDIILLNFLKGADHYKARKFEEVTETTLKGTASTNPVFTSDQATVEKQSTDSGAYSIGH
Test: whole-cell patch clamp, agonist concentration-response on native neurons
Format: cell-based

Nc1ncnc2c1ncn2[C@@H]1O[C@H](COP(=O)(O)CP(=O)(O)OP(=O)(O)O)[C@@H](O)[C@H]1O [α,β-meATP]
EC50: 6.9 ± 1.1 µM
